Measured values published in PMC10622552, “Engineering a scalable and orthogonal platform for synthetic communication in mammalian cells” (Nature Communications, 2023).

Experiments:
[1] = test system: HEK293S GnTi- TetR sender cells; assay: Flow cytometry of EmGFP-positive sender cells with and without doxycycline; assay type: cell-based, human; conditions: HEK293S GnTi- TetR senders prior to sorting; with dox
Protocol: HEK293T cells (ATCC® CRL3216™) or human embryonic kidney 293 S lacking N-acetylglucosaminyltransferase I and expressing the Tet repressor protein (HEK293S GnTI^- TetR; obtained from the group of N. Callewaert at the VIB-UGent Center for Medical Biotechnology; nico.callewaert@ugent.vib.be)[75] were plated in 24-well plates (Greiner) and upon reaching 10-20% confluency were transduced with lentivirus harboring the SUMO-tagged A’-A’ peptide with linker I2 (Supplementary Fig. S26) or SUMO-tagged A’-Γ or Γ’-A’ peptide with linker l4 (Supplementary Fig. S31), under the control of the major immediate–early (MIE) human cytomegalovirus (CMV) enhancer and promoter and two TetO operator sequences[69] followed by an internal ribosome entry site (IRES) from encephalomyocarditis virus (EMCV) controlling the expression of an emerald green fluorescent protein (EmGFP). In total, 50–100 μL lentivirus was added to the cells, containing transduction medium (DMEM (41966; Thermo Fisher Scientific) supplemented with 10% (v/v) heat-inactivated FBS (S-FBS-SA-015; Serana)). […] Cells were bulk-sorted or sorted as single cells for EmGFP by fluorescence-activated cell sorting (FACS) in 1:1 conditioned to growth media (conditioned medium being medium that has been in contact with cells for 24 hours and subsequently harvested and filtered with a 0.45-μm syringe filter (Merck)). […]

[2] = test system: A-typeJAK/STAT receptor in HEK293T receiver cells; assay: Sender-receiver co-culture, SEAP activity (Fig. 6b, S30); assay type: cell-based, human; conditions: 1.5 × 10^5 receivers + 6 × 10^5 senders; 1 μg/mL dox; 48 h, 37 °C; independent triplicates
From the text: In detail, we observe a 6.6-fold increase in SEAP activity for receiver cells cultured with senders in the presence of dox compared to a co-culture with senders in the absence of the inducer and 9.7-fold increase compared to receiver cells cultured with control 293S GnTi^- cells; a response that is similar to previously engineered paracrine synthetic communication systems[31],[33],[34],[36],[37],[42], ranging from 1.5- to 20-fold in performance. To understand the origin of this activation level, we plated 4.5 × 10^5 sender cells incubated with doxycycline and measured 0.14 μM of secreted SUMO-tagged A’-A’ dipeptide after 48 h, by means of western blotting using an anti-Smt3 antibody (“Methods” and Supplementary Fig. S29). […]
SEAP concentration in cell culture medium was quantified in terms of absorbance increase due to para-nitrophenylphosphate (pNPP), using a commercially available SEAP assay kit (NBP2-25285, Novus Biologicals). […] Absorbance values were measured at 405 nm, at a controlled temperature of 25 °C, for 60 minutes, using a Tecan Spark 10 M plate reader (Tecan). […] Absorbance units are converted to amount of substrate conversion and SEAP activity is calculated from the slope of the time trace and expressed in units per litre (U/L). […]

C[C@H]1c2cccc(O)c2C(=O)C2=C(O)[C@]3(O)C(=O)C(C(N)=O)=C(O)[C@@H](N(C)C)[C@@H]3[C@@H](O)[C@@H]21 [doxycycline]
EmGFP positive cells upon doxycycline, prior to sorting [1]: 55.0% | fold increase in SEAP activity vs co-culture without inducer [2]: 6.6 fold | fold increase in SEAP activity vs receivers with control 293S GnTi- cells [2]: 9.7 fold
